Drawing on patent publication US20240300942A1, “SMALL MOLECULES FOR TREATEMENT OF CANCER” (VRise Therapeutics Inc., priority 2021, published 2024), this text covers inhibition for eleven molecules.

One assay concerns NCI-H358 cell line. Nature of the assay: In vitro cell proliferation assay (CCK-8) in NCI-H358 cell line. The note with it: Homo sapiens, TC2: Test Concentration of 10 uM, 72 hours. It is filed as cell-based. On the procedure:
(§1) Growth inhibition assays is to be carried out using 10% FBS supplemented media. Cells are to be seeded at a desired concentration of 1,500-6,000 cells/well in a 96-well plate. Test compounds at a concentration range from 1 to 30 uM will be added after 24 hours. Growth will be assessed using the CCK-8 kit for measuring reduction at 0 h (prior to the addition of the test compound) and 72 hours after the addition of test compound. Absorbance read on a BIO-RAD iMark Microplate or any equivalent microplate reader at a wavelength of 450 nm. Data was analysed and percent inhibition due to the test compound compared to the control is calculated accordingly.

The next assay concerns MIAPACA-2 cell line. Nature of the assay: In vitro cell proliferation assay (CCK-8) in MIAPACA-2 cell line. It is filed as cell-based. The following applies: Homo sapiens, MIA PaCa-2, 72 hours; for inhibition at 3 µM: TC1: Test Concentration of 3 uM; for inhibition at 10 µM: TC2: Test Concentration of 10 uM. On the procedure: as §1

The structures appear in SMILES notation.

In general, inhibition refers to the drop in the measured response relative to a control, in per cent. Low readings indicate little suppression, high ones strong suppression. For the molecule `C=C(F)C(=O)N1CCN(c2nc(N3CCN(C(=O)CC)CC3)c(C#N)c3c2CCN(c2cccc4ccccc24)C3)CC1` [Ex 57, 1-(4-(2-fluoroacryloyl)piperazin-1-yl)-6-(naphthalen-1-yl)-3-(4-propionylpiperazin-1-yl)-5,6,7,8-tetrahydro-2,6-naphthyridine-4-carbonitrile], the inhibition at 10 µM in the assay on NCI-H358 cell line was 75 to 100%.

Consider `C=CC(=O)N1CCN(c2nc(N3CCN(C(=O)C=C)CC3)c3c(c2C#N)CN(c2cccc4ccccc24)CC3)CC1` [Ex 46, 1,3-bis(4-acryloylpiperazin-1-yl)-6-(naphthalen-1-yl)-5,6,7,8-tetrahydro-2,6-naphthyridine-4-carbonitrile], for which the inhibition at 10 µM with NCI-H358 cell line was in the range of 75 to 100%.

`C=CC(=O)N1CCN(c2nc(N3CCCCC3)c(C#N)c3c2CCN(Cc2ccccc2)C3)CC1` [Ex 42, 1-(4-acryloylpiperazin-1-yl)-6-benzyl-3-(piperidin-1-yl)-5,6,7,8-tetrahydro-2,6-naphthyridine-4-carbonitrile] returned an inhibition at 10 µM in the assay with NCI-H358 cell line of 25 to 50%.

Turning to `C=CC(=O)N1CCN(c2nc(N3CCN(C(=O)C=C)CC3)c3c(c2C#N)CN(Cc2ccccc2)CC3)CC1` [Ex 32, 1,3-bis(4-acryloylpiperazin-1-yl)-6-benzyl-5,6,7,8-tetrahydro-2,6-naphthyridine-4-carbonitrile], the inhibition at 10 µM with NCI-H358 cell line lay in the range of 50 to 75%.

In turn, `C=CC(=O)N1CCN(c2ncc(C#N)c3c2CCN(c2cccc4ccccc24)C3)CC1` [Ex 56, 1-(4-acryloylpiperazin-1-yl)-6-(naphthalen-1-yl)-5,6,7,8-tetrahydro-2,6-naphthyridine-4-carbonitrile] yielded an inhibition at 10 µM with NCI-H358 cell line of at most 25%.

Consider `C=CC(=O)N1CCN(c2nc(OCC3CCCN3C)c(C#N)c3c2CCN(Cc2ccccc2)C3)CC1` (stereo not drawn) [Ex 45, 1-(4-acryloylpiperazin-1-yl)-6-benzyl-3-((1-methylpyrrolidin-2-yl)methoxy)-5,6,7,8-tetrahydro-2,6-naphthyridine-4-carbonitrile], for which the inhibition at 10 µM in the assay on NCI-H358 cell line was at most 25%.

On to `C=CC(=O)N1CCN(c2nc(OC[C@@H]3CCCN3C)c(C#N)c3c2CCN(c2cccc4cccc(Cl)c24)C3)CC1` [Ex 8, (S)-1-(4-acryloylpiperazin-1-yl)-6-(8-chloronaphthalen-1-yl)-3-((1-methylpyrrolidin-2-yl)methoxy)-5,6,7,8-tetrahydro-2,6-naphthyridine-4-carbonitrile], for which, in the assay on MIAPACA-2 cell line, the inhibition at 3 µM was 25 to 50% and the inhibition at 10 µM lay within 75 to 100%.

Take `C=C(F)C(=O)N1CCN(c2nc(OC[C@@H]3CCCN3C)c(C#N)c3c2CCN(c2cccc4ccccc24)C3)CC1CC#N` (stereo partly drawn) [Ex 20, 1-(3-(cyanomethyl)-4-(2-fluoroacryloyl)piperazin-1-yl)-3-(((S)-1-methylpyrrolidin-2-yl)methoxy)-6-(naphthalen-1-yl)-5,6,7,8-tetrahydro-2,6-naphthyridine-4-carbonitrile]: in the assay on MIAPACA-2 cell line, the inhibition at 3 µM lay within 50 to 75% and the inhibition at 10 µM lay within 75 to 100%.

`C=C(F)C(=O)N1CCN(c2nc(OC[C@@H]3CCCN3C)c(C#N)c3c2CCN(c2ncnc4ccccc24)C3)CC1` [Ex 10, (S)-1-(4-(2-fluoroacryloyl)piperazin-1-yl)-3-((1-methylpyrrolidin-2-yl)methoxy)-6-(quinazolin-4-yl)-5,6,7,8-tetrahydro-2,6-naphthyridine-4-carbonitrile]: in the assay with MIAPACA-2 cell line, the inhibition at 3 µM was in the range of 75 to 100% and the inhibition at 10 µM lay in the range of 75 to 100%.

As to `C=CC(=O)N1CCN(c2nc(N3CC(C)OC(C)C3)c(C#N)c3c2CCN(c2cccc4ccccc24)C3)C[C@@H]1CC#N` (single isomer, unassigned) [Ex 14], in the assay on MIAPACA-2 cell line, the inhibition at 3 µM lay in the range of 75 to 100% and the inhibition at 10 µM was 75 to 100%.

For the molecule `C=CC(=O)N1CCN(c2nc(N3CCS(=O)(=O)CC3)c(C#N)c3c2CCN(c2cccc4ccccc24)C3)CC1` [Ex 1, 1-(4-acryloylpiperazin-1-yl)-3-(1,1-dioxidothiomorpholino)-6-(naphthalen-1-yl)-5,6,7,8-tetrahydro-2,6-naphthyridine-4-carbonitrile], the inhibition at 10 µM with MIAPACA-2 cell line lay in the range of 75 to 100%.
